Reference: US20220411397A1, “ANALOGUES OF N-ACYL-HOMOSERINE LACTONES AND PHARMACEUTICAL COMPOSITION COMPRISING SAME” (SORBONNE UNIVERSITE, priority 2019, published 2022)
Where two headings read alike, the source gives them in different places.

Tests used:
Caco-2/TC7 cells [1] = test: Stimulation of Caco-2/TC7 cells by IL-1β, IL-8 secretion (ELISA); format: cell-based, human
Description: 1.1.1. The Caco-2/TC7 Cell Line • The Caco-2 cell line is derived from a human colon adenocarcinoma and represents a cell culture model of enterocytes lining the epithelium of the small intestinal. […] During the exponential growth phase (from seeding to confluence), the cells remain undifferentiated. At confluence, they can spontaneously (in the absence of differentiation inducers) differentiate and progressively polarize. The differentiation process, which is a growth-related mechanism, is maximal at the end of confluence (stationary phase of the growth curve). • The cells develop a brush border at the apical pole containing microvilli and with characteristic enterocytic enzymes, such as hydrolases. • In accordance with the published literature, the Caco-2/TC7 cells in our experiments were seeded at 10^5 cells/well (equivalent to 10-12×10^3 cells/cm^2) in 6-well plastic culture plates. The cells were maintained in a glucose-rich medium (high glucose in the DMEM GlutaMAX medium 4.5 g/I glucose) supplemented with 20% heat-inactivated foetal calf serum, 1% nonessential amino acids NEAA, and 1% penicillin streptomycin. The cells were grown at 37° C. in a 10% CO2/air atmosphere. The medium was changed every day. Under these conditions, the cells were confluent on day 6. On day 17, the cells were serum-starved, and were used on day 18.
1.2.1. Stimulation of Caco-2/TC7 with Cytokines • The Caco-2/TC7 cells were seeded in 6-well plates at 100,000 cells/well and grown for 18 days. On day 17, the cells were serum-starved, which means that the cell medium was replaced with a foetal calf serum-free medium, and used on day 18. • The stimulation medium was composed of a medium referred to as “starvation medium”, i.e. without foetal calf serum (DMEM GlutaMAX, 1% NEAA, 1% penicillin-streptomycin) with 100 μM of 2-HQ. The cells were incubated for 18 h at 37° C. with 2 ml of stimulation medium containing 0.1% DMSO (negative control) or stimulation medium containing the compounds tested at desired concentrations, with or without proinflammatory cytokines to induce an inflammation. To induce the inflammation, either the IL-1β at 25 ng/ml or the combination of TNF-α and IFN-γ at 50 ng/ml each were used. After 18 h, the supernatants were collected and stored at −80° C. before analysis by ELISA test. The cells were washed with 1 ml of PBS 1×/well, and lysed in 100 μl of PBS 1× containing 1% Triton X-100. The cells were harvested by scraping and stored at −80° C. before the quantification of the protein. The dosing of the LDH was performed immediately before freezing. • All the experiments on the cells were performed in triplicates.
1.2.4. Quantification of the Human Cytokines by ELISA • The levels of the proinflammatory cytokine IL-8 produced by the cells were determined in the cell supernatants and/or cell lysates using the commercially available IL-8 ELISA detection kit (Duoset Human C×CL8/IL-8, ref. DY208) provided by R & D Systems (Minneapolis, Minn., USA) according to the instructions of the manufacturer. • All the cytokine levels were first normalized to the protein content determined in the corresponding cell lysates. Then, to compare the experiments, they could be further normalized using the activated control condition (DMSO+cytokines) as the 100% response.

LasR receptor = target: T1, LasR receptor (Pseudomonas aeruginosa, UniProt P25084); test: Activation of the LasR receptor on bacterial reporter strain E. coli pSB1075 (bioluminescence); format: cell-based
T1 construct: expressed in transfected cells; host or cells: Escherichia coli carrying plasmid pSB1075
T1 sequence (P25084 whole entry): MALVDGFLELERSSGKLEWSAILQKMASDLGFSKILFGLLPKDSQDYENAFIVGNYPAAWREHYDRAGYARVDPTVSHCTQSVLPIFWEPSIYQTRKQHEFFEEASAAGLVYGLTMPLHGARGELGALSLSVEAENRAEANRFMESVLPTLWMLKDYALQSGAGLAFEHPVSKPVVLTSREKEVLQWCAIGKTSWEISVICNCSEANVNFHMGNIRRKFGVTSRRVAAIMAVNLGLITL
Description: 1.1.3. The Bacterial Reporter Strain E. coli pSB1075 • A bacterial reporter strain of the Quorum Sensing was used to study the ability of the molecules to be recognized by the Pseudomonas aeruginosa AHL receptor (LasR) and induce an activation. […] This bioluminescent strain was modified by addition of a plasmid pSB1075. This plasmid contains genes encoding both tetracycline resistance and the expression of the LasR AHL receptor from the Pseudomonas aeruginosa bacteria, as well as a fusion gene derived from the LasR promoter and the luxCDABE gene from Photorhabdus luminescence. The bacterial strain was grown in the LB medium supplemented with 5 μg/ml tetracycline to exert a selection pressure and ensure that only the desired strain was amplified. The fusion gene included in the plasmid gives the bacteria the ability to emit a bioluminescence when the LasR receptor is activated, and provides the user with a robust test for the molecular screening. […] On day 1, the culture was diluted 1:100 (P1) in 10 ml of LB medium supplemented with 5 μg/ml tetracycline and maintained for 24 hours at 37° C. under stirring at 70 rpm. On day 2, the experiment took place: a bacterial suspension extemporaneously diluted 1:10 in LB medium supplemented with 5 μg/ml tetracycline (P2) was dispensed into a black opaque 96-well plate and incubated for 4 hours with a range of AHL concentrations or controls until the resulting luminescence was read at the end point. All experiments were performed in triplicates.
1.3. […] This bioluminescent strain was developed by the addition of a plasmid pSB1075 containing genes encoding the tetracycline resistance and the expression of the LasR AHL receptor, as well as a fusion gene of the LasR promoter and the luxCDABE gene of Photorhabdus luminescence. • On day 1, a 1/100 dilution of the bacterial strain (P1) was grown for 24 hours at 37° C. under stirring (70 rpm) in a LB medium containing 5 μg/ml tetracycline (pressure selective). On day 2, P1 was diluted 1:10 in the same medium to obtain P2. In a black 96-well plate were placed 200 μL of P2 and 10 μL of the short chain compound (medium, water and DMSO for the negative controls, C4-HSL as positive control, and the test sample at the desired concentration). The plate was incubated for 4 hours at 37° C. under stirring at 70 rpm. […] After that, the incubation was continued according to the conventional protocol, with the test compound at the desired concentrations.

E. coli K12 strain = test: Bactericidal dosage on the E. coli K12 strain (absorbance at 600 nm); format: cell-based; conditions: for comparative survival of E. coli K12: all concentrations, maximum 100 μM shown, 18 h
Description: 1.1.4. Bactericidal Dosage • The K12 strain of E. coli was grown on agar on day 0 and a colony was transferred to the LYBHI liquid bacterial culture medium on day 1. On day 2, the colony was diluted 1:100 in LYBHI medium and amplified for 18 hours before transfer to an opaque 96-well plate. In each well, LYBHI, controls or increasing doses of tested molecules and bacteria were distributed. The absorbance at 600 nm was read at start-up (t=0) and after an 18-hour incubation. The raw absorbance values were corrected using the absorbance of solutions without bacteria. All experiments were performed twice, each with 4 replicates.
The E. coli K12 strain was cultured at D0 on agar gel, and then a selected colony was transferred to a liquid bacterial culture LYBHI medium at D1. At day 2, this colony was diluted 1:100 in LYBHI medium, and maintained for 18 hours for expansion before distribution in an opaque 96-well plate. In each well were distributed: LYBHI medium, bacterial culture, and test or control compounds. The absorbance of the wells was read at 600 nm at t0 and t18h. The raw absorbance values were corrected against the absorbance of the wells containing only LYBHI medium without bacteria or compounds.

human keratinocytes = test: Inhibition of IL-8 secretion by human keratinocytes stimulated by IL-17 and TNF-α; format: cell-based; conditions: test of FIG. 4
human lymphocytes = test: Inhibition of IL-2 secretion by human lymphocytes stimulated by CD2, CD3 and CD28; format: cell-based; conditions: test of FIG. 5
Caco-2/TC7 cells [2] = test: Cytotoxicity test, LDH secretion, Caco-2/TC7; format: cell-based; conditions: 1-100 μM; for measured cytotoxicity (LDH): Caco-2/TC7
Description: (§1) 1.2.6. […] To measure the concentration of LDH in the cell lysate, 800 μL of NADH was added to 10 μL of […] and 190 μL of 0.1 M PBS in a plastic cuvette, and the decrease in the absorbance at 340 nm was monitored for 1 min. […] The percentage of cytotoxicity could be established with the formula: […]
(§2) The cytotoxicity of the tested and control compounds was evaluated using a measurement test of the LDH (Lactate Dehydrogenase) secretion. This test is based on the measurement of the amount of LDH secreted by the cells in their supernatant, compared to the amount of LDH that will remain in the intracellular compartment. This ratio provides an indication of the membrane damage suffered by the cells, and thus of the cytotoxicity of the compound.
(§3) Two methods were used to perform this test: the measurement using an extemporaneously prepared pyruvate/NADH solution, or using the Cytotoxicity Detection Kit^PLUS(LDH) from the manufacturer Roche (Sigma-Aldrich).
(§4) Pyruvate/NADH method: pyruvate/NADH solution prepared with 4.1 mg pyruvic acid (0.62 mM) and 7.7 mg NADH (0.18 mM) in 60 ml of 0.1M PBS (pH 7.4).
(§5) For the measurement of the LDH concentration in the supernatants, 800 μL of NADH was added to 200 μL of supernatant in plastic spectrometry cuvettes, and the decrease in absorbance of the final solution was read at 340 nm for 1 min. For the measurement of the LDH concentration in the cell lysates, 800 μL of NADH was added to 10 μL of cell lysates and 190 μL of 0.1M PBS in plastic spectrometry cuvettes, and the decrease in absorbance of the final solution was read at 340 nm for 1 min. The percentage of LDH secreted was then calculated by the ratio of the decay slopes of the absorbance of the supernatants and of the cell lysates (respectively).
(§6) Cytotoxicity Detection Kit^PLUS (LDH) method: absorbance test performed according to the manufacturer's instructions. The percentage of LDH secreted was then calculated by the formula: […]

Raw264.7 murine cells = test: Cytotoxicity test, LDH secretion, Raw264.7; format: cell-based; conditions: as early as 50 μM; basal and stimulated conditions
Description: as §1, §2, §3, §4, §5, §6

SMILES	comparative survival of E. coli K12 (E. coli K12 strain)	activity on IL-8 secretion by keratinocytes (human keratinocytes)	activity on IL-2 secretion by lymphocytes (human lymphocytes)	measured cytotoxicity (LDH) (Caco-2/TC7 cells [2]) [%]	secreted LDH, Raw264.7 (Raw264.7 murine cells)	further results
CCCCCCCCCC(=O)CC(=O)NC1CCSC1=O (racemic) [I-1, 3-oxo-N-(tetrahydro-2-oxo-3-thienyl)-dodecanamide]	No significant differences	–	–	–	–	activity on IL-1β-stimulated Caco-2/TC7 cells compared with natural 3-oxo-C12 HSL (Caco-2/TC7 cells [1]; IL-1β stimulation, no concentration range stated): an activity equivalent to that of the natural 3-oxo-C12 HSL; activity on IL-1β-stimulated Caco-2/TC7 cells compared with natural 3-oxo-C12 HSL (Caco-2/TC7 cells [1]; at the 100 μM dose): more active than the latter; EC50 (LasR receptor): 0.125 µM
CCCCCCCCCC(=O)CC(=O)N[C@H]1CCOC1=O [3-oxo-C12-HSL, N-(3(S)-oxododecanoyl) homoserine lactone, reference compound]	–	inactive	inactive	≤ 2.5	an increase in secreted LDH	–
CC/C=C\C/C=C\CCC(=O)CC(=O)N[C@H]1CCOC1=O [3-oxo-C12:2-HSL, reference compound]	–	inactive	inactive	≤ 1.5	an increase in secreted LDH	tolerance, Caco-2/TC7 (Caco-2/TC7 cells [2]; presence and absence of pro-inflammatory cytokines): well tolerated; bactericidal effect on E. coli K12 (E. coli K12 strain; 1-100 μM, 18 h of incubation): No toxic effect
CCCC(=O)N[C@H]1CCOC1=O [C4-HSL, reference compound]	–	–	–	–	–	EC50 (LasR receptor; bacterial reporter strain, read-out: EC50 of LasR receptor activation): > 1000 µM
CCCCCCCCCC(=O)CC(=O)N[C@H]1CCSC1=O [I-3, 3-oxo N-[(3S)-tetrahydro-2-oxo-3-thienyl]-dodecanamide]	No significant differences	–	–	–	–	decrease in the inflammatory secretion (Caco-2/TC7 cells [1]; at 5 μM, IL-1β-stimulated Caco-2/TC7): 27%
